From patent US12472272B2, “Radiolabelled compounds for diagnosis or treatment of prostate-specific membrane antigen- expressing cancer” (PROVINCIAL HEALTH SERVICES AUTHORITY, priority 2019, dated 2025)

Assays:
LNCaP tumors = experiment: PET/CT imaging of ^68Ga-labeled tracers; assay type: in vivo, mice; settings: FIG. 3
Method: (§1) Imaging and biodistribution experiments were performed using NODSCID 1L2RγKO male mice. Mice were anesthetized by inhalation with 2% isoflurane in oxygen, and implanted subcutaneously with 1×10^7 LNCaP cells behind left shoulder. Mice were imaged or used in biodistribution studies when the tumor grew up to reach 5-8 mm in diameter during 5-6 weeks.
(§2) PET imaging experiments were conducted using Siemens Inveon micro PET/CT scanner. Each tumor bearing mouse was injected 6-8 MBq of Ga-68 labeled tracer through the tail vein under anesthesia (2% isoflurane in oxygen). The mice were allowed to recover and roam freely in their cage. After 50 min, the mice were sedated again with 2% isoflurane in oxygen inhalation and positioned in the scanner. A 10-min CT scan was conducted first for localization and attenuation correction after segmentation for reconstructing the PET images. Then, a 10-min static PET imaging was performed to determined uptake in tumor and other organs. The mice were kept warm by a heating pad during acquisition. For imaging studies acquired at 3 h post-injection (p.i.), the mice were placed in the micro PET/CT scanner at 170 min p.i. Then, the CT acquisitions were conducted as described above, a 15-min static PET imaging was performed to determined uptake in tumor and other organs.

[1] = system: PSMA-expressing LNCAP cancer xenografts; experiment: Biodistribution of ^68Ga-labeled PSMA-targeting tracers; assay type: in vivo, mice; settings: 1 h post-injection
Method: as §1, §2
For biodistribution studies, the mice were injected with the radiotracer as described above. At predetermined time points (1 or 3 h for ^68Ga studies; 1, 4, 24, 72, or 120 h for ^177Lu studies), the mice was anesthetized with 2% isoflurane inhalation, and euthanized by CO2 inhalation. Blood was withdrawn immediately from the heart, and the organs/tissues of interest were collected. The collected organs/tissues were weighed and counted using a Perkin Elmer (Waltham, MA) Wizard2 2480 gamma counter. The uptake in each organ/tissue was normalized to the injected dose using a standard curve, and expressed as the percentage of the injected dose per gram of tissue (% ID/g).

| Structure (SMILES) | uptake in PET/CT images (LNCaP tumors) | Tissue (% ID/g): Adrenal glands [1] [% ID/g] | Tissue (% ID/g): Blood [1] [% ID/g] | Tissue (% ID/g): Bone [1] [% ID/g] | Tissue (% ID/g): Brain [1] [% ID/g] | Tissue (% ID/g): Fat [1] [% ID/g] | Tissue (% ID/g): Heart [1] [% ID/g] | Tissue (% ID/g): Intestine [1] [% ID/g] | Tissue (% ID/g): Kidneys [1] [% ID/g] | Tissue (% ID/g): Lacrimal [1] [% ID/g] | Tissue (% ID/g): Liver [1] [% ID/g] | Tissue (% ID/g): Lungs [1] [% ID/g] | Tissue (% ID/g): Muscle [1] [% ID/g] | Tissue (% ID/g): Pancreas [1] [% ID/g] | Tissue (% ID/g): Salivary [1] [% ID/g] | Tissue (% ID/g): Seminal [1] [% ID/g] | Tissue (% ID/g): Spleen [1] [% ID/g] | Tissue (% ID/g): Stomach [1] [% ID/g] | Tissue (% ID/g): Tail [1] [% ID/g] | Tissue (% ID/g): Testes [1] [% ID/g] | other results |
| --- | --- | --- | --- | --- | --- | --- | --- | --- | --- | --- | --- | --- | --- | --- | --- | --- | --- | --- | --- | --- | --- |
| CCCCCC[C@H](NC(=O)[C@H]1CC[C@H](CNC(=O)CN2CCN(CC(=O)[O-])CCN(CC(=O)[O-])CCN(CC(=O)[O-])CC2)CC1)C(=O)NCCCC[C@H](NC(=O)N[C@@H](CCC(=O)O)C(=O)O)C(=O)O.[68Ga+3] [^68Ga-HTK03026] | higher uptake was observed in LNCap tumor xenografts, kidneys and urinary bladders | 1.84 ± 0.95 | 0.70 ± 0.19 | 0.54 ± 0.20 | 0.06 ± 0.02 | 0.45 ± 0.11 | 0.30 ± 0.06 | 0.29 ± 0.06 | 68.5 ± 28.2 | 1.33 ± 0.90 | 0.24 ± 0.06 | 0.82 ± 0.26 | 0.28 ± 0.13 | 0.71 ± 1.04 | 0.83 ± 0.22 | 0.43 ± 0.31 | 1.34 ± 0.54 | 0.10 ± 0.03 | 0.90 ± 0.56 | 0.35 ± 0.22 | Tissue (% ID/g): Thyroid [1]: 0.35 ± 0.08 % ID/g; Tissue (% ID/g): Tumor [1]: 12.5 ± 2.90 % ID/g; Tissue (% ID/g): Urine [1]: 575 ± 245 % ID/g; tumor-to-background contrast ratio Tumor: Blood [1]: 18.6 ± 5.54; tumor-to-background contrast ratio Tumor: Muscle [1]: 52.8 ± 24.9; tumor-to-background contrast ratio Tumor: kidney [1]: 0.22 ± 0.15; Tissue (% ID/g): Tumor ([1]; listed as 68Ga-labeled HTK03026): ~13 % ID/g |
| O=C([O-])CN1CCN(CC(=O)[O-])CCN(CC(=O)NC[C@H]2CC[C@H](C(=O)N[C@@H](Cc3ccc4cc5ccccc5cc4c3)C(=O)NCCCC[C@H](NC(=O)N[C@@H](CCC(=O)O)C(=O)O)C(=O)O)CC2)CCN(CC(=O)[O-])CC1.[68Ga+3] [^68Ga-HTK03027] | higher uptake was observed in LNCap tumor xenografts, kidneys and urinary bladders | 3.55 ± 2.33 | 1.56 ± 0.57 | 0.70 ± 0.33 | 0.06 ± 0.03 | 1.03 ± 0.67 | 0.56 ± 0.24 | 0.44 ± 0.12 | 85.6 ± 73.5 | 1.00 ± 0.56 | 0.46 ± 0.10 | 1.66 ± 0.67 | 0.48 ± 0.37 | 0.57 ± 0.20 | 1.86 ± 0.91 | 10.6 ± 10.9 | 3.36 ± 2.54 | 0.17 ± 0.10 | 0.98 ± 0.38 | 0.56 ± 0.18 | Tissue (% ID/g): Thyroid [1]: 0.76 ± 0.33 % ID/g; Tissue (% ID/g): Tumor [1]: 13.3 ± 5.44 % ID/g; Tissue (% ID/g): Urine [1]: 844 ± 645 % ID/g; tumor-to-background contrast ratio Tumor: Blood [1]: 8.57 ± 2.83; tumor-to-background contrast ratio Tumor: Muscle [1]: 35.0 ± 18.7; tumor-to-background contrast ratio Tumor: kidney [1]: 0.27 ± 0.20; Tissue (% ID/g): Tumor ([1]; listed as 68Ga-labeled HTK03027): ~13 % ID/g |
